The text below walks through data of paper PMC5060005 (Bioorganic & medicinal chemistry, 2016).

Targets include 5-HT2A receptor (Homo sapiens, UniProt P28223); 5-HT7 receptor (Homo sapiens, UniProt P34969); 5-HT1A receptor (Homo sapiens, UniProt P08908).
Another assay has as its target 5-HT2B receptor (Homo sapiens, UniProt P41595). The following applies: MTA = Missed 50% of threshold inhibition; Ki without SEM within 20% of mean.
A further assay addresses 5-HT2C receptor (Homo sapiens, UniProt P28335). Particulars: MTA = Missed 50% of threshold inhibition; Ki without SEM within 20% of mean.
A further assay concerns the target D2 receptor (Homo sapiens, UniProt P14416). The following applies: MTA = Missed 50% of threshold inhibition; Ki without SEM within 20% of mean.
The target in the next assay is histamine H1 receptor (Homo sapiens, UniProt P35367). Particulars: MTA = Missed 50% of threshold inhibition; Ki without SEM within 20% of mean.
Chain of histamine H1 receptor (P35367 whole entry, species assumed): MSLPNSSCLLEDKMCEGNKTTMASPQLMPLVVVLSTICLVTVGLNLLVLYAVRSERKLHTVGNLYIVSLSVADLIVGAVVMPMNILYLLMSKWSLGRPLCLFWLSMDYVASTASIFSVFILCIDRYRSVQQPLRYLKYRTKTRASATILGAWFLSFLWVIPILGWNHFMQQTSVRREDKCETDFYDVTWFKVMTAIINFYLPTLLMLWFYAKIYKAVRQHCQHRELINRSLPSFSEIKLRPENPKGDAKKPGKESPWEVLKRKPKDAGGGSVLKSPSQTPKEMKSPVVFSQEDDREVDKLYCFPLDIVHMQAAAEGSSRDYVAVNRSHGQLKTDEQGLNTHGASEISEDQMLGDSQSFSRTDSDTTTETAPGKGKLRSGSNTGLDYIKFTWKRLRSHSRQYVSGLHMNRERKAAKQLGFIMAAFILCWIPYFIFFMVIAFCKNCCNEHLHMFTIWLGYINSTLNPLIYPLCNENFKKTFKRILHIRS
For another assay, the target named is SERT (Homo sapiens, UniProt P31645). Particulars: MTA = Missed 50% of threshold inhibition; Ki without SEM within 20% of mean.
Chain of SERT (P31645 whole entry, species assumed): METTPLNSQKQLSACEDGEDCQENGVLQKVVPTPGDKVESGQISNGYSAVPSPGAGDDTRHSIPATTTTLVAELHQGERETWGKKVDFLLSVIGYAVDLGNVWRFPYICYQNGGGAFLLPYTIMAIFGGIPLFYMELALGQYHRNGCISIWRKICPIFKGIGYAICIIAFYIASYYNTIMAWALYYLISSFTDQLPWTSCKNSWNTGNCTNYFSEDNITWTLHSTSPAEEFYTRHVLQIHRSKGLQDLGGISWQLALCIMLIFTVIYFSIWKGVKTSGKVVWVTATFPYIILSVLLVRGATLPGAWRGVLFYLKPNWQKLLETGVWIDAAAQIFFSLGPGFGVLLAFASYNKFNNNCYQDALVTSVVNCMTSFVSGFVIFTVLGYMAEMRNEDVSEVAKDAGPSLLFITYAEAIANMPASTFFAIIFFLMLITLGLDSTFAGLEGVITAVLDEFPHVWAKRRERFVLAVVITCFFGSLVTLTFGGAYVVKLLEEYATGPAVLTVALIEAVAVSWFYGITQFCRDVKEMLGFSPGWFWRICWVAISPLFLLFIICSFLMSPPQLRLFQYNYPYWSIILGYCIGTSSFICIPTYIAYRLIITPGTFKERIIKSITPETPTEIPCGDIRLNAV
In a further assay the target is D3 receptor (Homo sapiens, UniProt P35462). The following applies: MTA = Missed 50% of threshold inhibition; Ki without SEM within 20% of mean.
Chain of D3 receptor (P35462 whole entry): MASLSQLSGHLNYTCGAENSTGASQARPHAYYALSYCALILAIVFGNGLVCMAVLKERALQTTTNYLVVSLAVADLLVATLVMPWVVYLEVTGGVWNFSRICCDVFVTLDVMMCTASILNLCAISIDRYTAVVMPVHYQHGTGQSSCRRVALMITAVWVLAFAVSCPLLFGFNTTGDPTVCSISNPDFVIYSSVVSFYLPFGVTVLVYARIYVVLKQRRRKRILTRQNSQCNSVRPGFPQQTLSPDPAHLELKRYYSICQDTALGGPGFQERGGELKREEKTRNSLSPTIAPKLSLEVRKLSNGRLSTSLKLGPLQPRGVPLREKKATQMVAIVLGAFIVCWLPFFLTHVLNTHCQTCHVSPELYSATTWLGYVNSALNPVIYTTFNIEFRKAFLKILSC
The mark [1] stands for this setting: MTA = Missed 50% of threshold inhibition, Ki without SEM within 20% of mean.

Where a name gives a salt, the structure may show the parent alone. Read-outs that look alike come from different tables or passages of the source.

Chain of 5-HT2B receptor (P41595 whole entry): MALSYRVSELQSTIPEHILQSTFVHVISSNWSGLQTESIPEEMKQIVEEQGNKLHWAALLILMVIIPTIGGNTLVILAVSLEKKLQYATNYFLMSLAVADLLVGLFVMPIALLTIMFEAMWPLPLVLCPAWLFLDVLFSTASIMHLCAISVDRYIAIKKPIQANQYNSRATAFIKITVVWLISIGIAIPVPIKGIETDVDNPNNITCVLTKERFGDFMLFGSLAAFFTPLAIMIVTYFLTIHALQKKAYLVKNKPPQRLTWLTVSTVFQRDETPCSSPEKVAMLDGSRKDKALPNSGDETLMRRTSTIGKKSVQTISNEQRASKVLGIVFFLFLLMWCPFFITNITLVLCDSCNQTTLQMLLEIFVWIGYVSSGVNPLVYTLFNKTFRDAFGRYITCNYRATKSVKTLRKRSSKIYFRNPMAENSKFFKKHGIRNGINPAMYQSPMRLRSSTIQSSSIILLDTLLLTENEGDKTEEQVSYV
Chain of 5-HT2C receptor (P28335 33-458): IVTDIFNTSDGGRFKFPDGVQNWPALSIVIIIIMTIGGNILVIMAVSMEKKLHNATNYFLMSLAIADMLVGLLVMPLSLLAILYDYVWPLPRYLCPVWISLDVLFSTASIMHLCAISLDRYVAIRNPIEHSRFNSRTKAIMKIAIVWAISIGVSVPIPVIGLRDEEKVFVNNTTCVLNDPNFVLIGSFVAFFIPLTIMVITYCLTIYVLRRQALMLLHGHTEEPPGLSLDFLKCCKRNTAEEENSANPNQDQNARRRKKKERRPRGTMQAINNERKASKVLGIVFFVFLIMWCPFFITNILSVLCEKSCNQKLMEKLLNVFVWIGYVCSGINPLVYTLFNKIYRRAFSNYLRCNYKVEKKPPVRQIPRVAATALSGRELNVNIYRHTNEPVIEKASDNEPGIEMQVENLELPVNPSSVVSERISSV
Chain of 5-HT7 receptor (P34969 whole entry): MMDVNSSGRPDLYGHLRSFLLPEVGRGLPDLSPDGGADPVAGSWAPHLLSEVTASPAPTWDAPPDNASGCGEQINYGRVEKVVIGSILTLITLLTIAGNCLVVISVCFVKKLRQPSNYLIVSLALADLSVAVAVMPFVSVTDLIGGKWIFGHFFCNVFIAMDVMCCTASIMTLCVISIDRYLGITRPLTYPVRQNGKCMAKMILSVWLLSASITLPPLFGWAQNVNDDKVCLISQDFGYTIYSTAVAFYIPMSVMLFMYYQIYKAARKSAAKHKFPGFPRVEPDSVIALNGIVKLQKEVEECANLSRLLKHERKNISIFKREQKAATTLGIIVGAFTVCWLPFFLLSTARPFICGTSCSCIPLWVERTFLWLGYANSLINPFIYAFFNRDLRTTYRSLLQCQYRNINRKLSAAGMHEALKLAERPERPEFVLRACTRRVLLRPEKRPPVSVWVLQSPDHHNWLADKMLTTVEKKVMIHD
Chain of 5-HT2A receptor (P28223 whole entry): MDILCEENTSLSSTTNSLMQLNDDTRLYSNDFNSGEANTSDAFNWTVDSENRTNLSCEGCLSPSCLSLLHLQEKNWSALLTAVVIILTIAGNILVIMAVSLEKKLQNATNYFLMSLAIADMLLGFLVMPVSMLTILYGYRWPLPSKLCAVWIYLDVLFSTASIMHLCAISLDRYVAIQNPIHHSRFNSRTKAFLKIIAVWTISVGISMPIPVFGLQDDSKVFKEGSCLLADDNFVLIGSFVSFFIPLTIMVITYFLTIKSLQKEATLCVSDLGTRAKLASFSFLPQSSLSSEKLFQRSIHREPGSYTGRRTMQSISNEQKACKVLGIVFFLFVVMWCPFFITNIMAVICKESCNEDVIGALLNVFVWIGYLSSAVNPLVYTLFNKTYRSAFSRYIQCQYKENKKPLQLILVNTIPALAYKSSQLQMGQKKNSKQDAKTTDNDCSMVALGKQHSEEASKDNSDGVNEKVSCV
Chain of 5-HT1A receptor (P08908 whole entry): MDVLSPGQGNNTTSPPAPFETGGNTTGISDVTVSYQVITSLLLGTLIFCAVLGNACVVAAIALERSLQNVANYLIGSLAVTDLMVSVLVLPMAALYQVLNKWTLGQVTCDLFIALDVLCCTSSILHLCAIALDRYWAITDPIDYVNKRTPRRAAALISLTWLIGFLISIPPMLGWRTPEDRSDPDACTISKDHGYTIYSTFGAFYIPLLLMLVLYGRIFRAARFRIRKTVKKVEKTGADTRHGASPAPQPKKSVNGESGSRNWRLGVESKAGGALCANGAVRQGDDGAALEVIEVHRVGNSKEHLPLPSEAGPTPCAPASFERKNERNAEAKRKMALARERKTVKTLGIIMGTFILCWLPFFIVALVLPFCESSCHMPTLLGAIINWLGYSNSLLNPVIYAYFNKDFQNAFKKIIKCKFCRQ
Chain of D2 receptor (P14416 whole entry): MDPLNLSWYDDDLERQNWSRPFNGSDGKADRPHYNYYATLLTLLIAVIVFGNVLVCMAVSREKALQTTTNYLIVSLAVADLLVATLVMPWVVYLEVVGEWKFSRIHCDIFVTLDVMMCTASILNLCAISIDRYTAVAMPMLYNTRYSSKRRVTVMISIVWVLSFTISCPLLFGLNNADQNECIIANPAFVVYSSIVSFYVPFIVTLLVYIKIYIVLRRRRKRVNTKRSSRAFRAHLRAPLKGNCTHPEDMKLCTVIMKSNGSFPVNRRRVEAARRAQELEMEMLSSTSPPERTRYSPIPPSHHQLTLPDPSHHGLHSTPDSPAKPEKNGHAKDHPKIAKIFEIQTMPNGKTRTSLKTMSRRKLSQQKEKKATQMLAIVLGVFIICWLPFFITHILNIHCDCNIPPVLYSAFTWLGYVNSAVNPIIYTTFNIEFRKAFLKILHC

In the case of `O=C1c2ccccc2C(=O)N1CCCCN1CCc2ccccc2C1` [Compound 1, 2-(4-(3,4-Dihydroisoquinolin-2(1H)-yl)butyl)isoindoline-1,3-dione], the “Ki 5-HT2A” value at 5-HT2A receptor is reported as “MTA”. Moreover, the “Ki 5-HT2B” value at 5-HT2B receptor is “MTA”. Also, the “Ki 5-HT2C” value on 5-HT2C receptor is reported as “MTA”. At D2 receptor, the “Ki D2” value is listed as “MTA”. Moreover, at histamine H1 receptor, the “Ki H1” value is “MTA”. Also, the “Ki SERT” value on SERT is “MTA”.

Consider `O=C1c2ccccc2C(=O)N1CCCCN1CCC2CCCCC2C1` (centres unmarked) [Compound 2, 2-(4-(Octahydroisoquinolin-2(1H)-yl)butyl)isoindoline-1,3-dione], for which, at 5-HT7 receptor (relative to compound 1), the “decrease in binding affinity to the 5-HT7R” value is ~40 fold.

With `O=C1c2ccccc2C(=O)N1CCCCN1Cc2ccccc2C1` [Compound 3, 2-(4-(Isoindolin-2-yl)butyl)isoindoline-1,3-dione], the “Ki 5-HT1A” value on 5-HT1A receptor (setting [1]) is reported as “MTA”. Also, on 5-HT2A receptor (setting [1]), the “Ki 5-HT2A” value is on record as “MTA”. The “Ki 5-HT7” value on 5-HT7 receptor (setting [1]) is on record as “MTA”. Also, the “Ki 5-HT2B” value on 5-HT2B receptor is on record as “MTA”. Also, the “Ki D2” value on D2 receptor is recorded as “MTA”. The “Ki D3” value at D3 receptor is “MTA”. Moreover, on histamine H1 receptor, the “Ki H1” value is reported as “MTA”. The “Ki SERT” value on SERT is on record as “MTA”.

For `c1ccc2c(c1)CCN(CCCCc1c[nH]c3ccccc13)C2` [Compound 4, 2-(4-(1H-indol-3-yl)butyl)-1,2,3,4-tetrahydroisoquinoline], at 5-HT2B receptor, the “Ki 5-HT2B” value is “MTA”. Also, the “Ki 5-HT2C” value at 5-HT2C receptor is listed as “MTA”.

For `Cl.Fc1ccc2c(c1)CC(CCN1CCc3ccccc3C1)C2` (centres unmarked) [Compound 5, 2-(2-(5-Fluoro-2,3-dihydro-1H-inden-2-yl)ethyl)-1,2,3,4-tetrahydroisoquinoline hydrochloride], the “Ki 5-HT2C” value at 5-HT2C receptor is recorded as “MTA”.

`Cl.Fc1ccc(OCCCN2CCc3ccccc3C2)cc1` [Compound 7, 2-(3-(4-Fluorophenoxy)propyl)-1,2,3,4-tetrahydroisoquinoline hydrochloride]: the “Ki 5-HT2C” value on 5-HT2C receptor is listed as “MTA”. The “Ki SERT” value on SERT is on record as “MTA”.

Take `Cl.Fc1ccc(SCCCN2CCc3ccccc3C2)cc1` [Compound 8, 2-(3-((4-Fluorophenyl)thio)propyl)-1,2,3,4-tetrahydroisoquinoline hydrochloride]: at SERT, the “Ki SERT” value is “MTA”.

On to `Cl.[O-][S+](CCCN1CCc2ccccc2C1)c1ccc(F)cc1` (centres unmarked) [Compound 9, 2-(3-((4-Fluorophenyl)sulfinyl)propyl)-1,2,3,4-tetrahydroisoquinoline hydrochloride], for which, on 5-HT2C receptor, the “Ki 5-HT2C” value is “MTA”. The “Ki SERT” value on SERT is given as “MTA”.

With `O=C(CCCN1CCc2ccccc2C1)c1ccc(F)cc1` [Compound 10, 4-(3,4-Dihydroisoquinolin-2(1H)-yl)-1-(4-fluorophenyl)butan-1-one], the “increase in binding affinity at the 5-HT1AR” value at 5-HT1A receptor (relative to compound 9) amounted to 3 fold. Further, at SERT, the “Ki SERT” value is recorded as “MTA”.

Turning to `O=C(CCCN1CCc2ccccc2C1)c1ccc(O)cc1` [Compound 15, 4-(3,4-Dihydroisoquinolin-2(1H)-yl)-1-(4-hydroxyphenyl)butan-1-one hydrochloride], the “Ki 5-HT2C” value at 5-HT2C receptor is “MTA”.
